Data as given in patent US20130267551A1, “SUBSTITUTED HYDROGENATED THIENO-PYRROLO[3,2-C]PYRIDINE, LIGANDS, A PHARMACEUTICAL COMPOSITION AND A METHOD FOR USING THE ABOVE” (ALLA CHEM, LLC, priority 2010, published 2013).
Counter-ions that a name gives are not always drawn.

Assays:
Mice of SHK line = experiment: Prepulse inhibition of startle response in mice (Apomorphine); conditions: 1 mg/kg, intraperitoneally 60 minutes before the test
Adrenergic α1B = experiment: competitive radioligand binding, Adrenergic α1B; conditions: compound concentration of 1 μM
Method: (§1) Profiles of pharmacological activity of thieno-pyrrolo[3,2-c]pyridines of the general formula 1. Biological activity test of compounds of the general formula 1 was carried out in the setting of competitive radioligand binding [I. Okun, S. Tkachenko, A. Khvat, et al., Current Alzheimer Research, 7(2), 97-112 (2010)], using a wide range of therapeutic targets including G-protein coupled receptors (GPCR), ion channels and neuromediator transporters. The tested activity was determined by quantitative measurement of radio-labelled ligand displacement by tested compounds of the general formula 1 at their concentration of 1 μM.

Serotoninergic 5-HT6 = Serotoninergic 5-HT6 (Homo sapiens, UniProt P50406); experiment: competitive radioligand binding, Serotoninergic 5-HT6; conditions: compound concentration of 1 μM
Sequence of Serotoninergic 5-HT6 (P50406 whole entry): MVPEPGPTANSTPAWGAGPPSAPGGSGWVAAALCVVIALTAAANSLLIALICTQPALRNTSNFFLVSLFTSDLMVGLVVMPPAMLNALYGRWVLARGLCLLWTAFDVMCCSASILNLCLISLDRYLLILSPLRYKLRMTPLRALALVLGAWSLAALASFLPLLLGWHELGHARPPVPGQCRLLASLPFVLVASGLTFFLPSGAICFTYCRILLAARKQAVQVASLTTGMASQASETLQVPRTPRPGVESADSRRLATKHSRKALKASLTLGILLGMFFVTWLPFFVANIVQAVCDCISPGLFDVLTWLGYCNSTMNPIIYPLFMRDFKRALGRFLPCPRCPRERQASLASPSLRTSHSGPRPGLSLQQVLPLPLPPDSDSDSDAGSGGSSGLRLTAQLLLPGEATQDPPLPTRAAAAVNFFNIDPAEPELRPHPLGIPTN
Method: as §1

Serotoninergic 5-HT1A = biological target: T1, Serotoninergic 5-HT1A (Homo sapiens, UniProt P08908); experiment: competitive radioligand binding, Serotoninergic 5-HT1A; conditions: compound concentration of 1 μM
T1 sequence (P08908 1-422): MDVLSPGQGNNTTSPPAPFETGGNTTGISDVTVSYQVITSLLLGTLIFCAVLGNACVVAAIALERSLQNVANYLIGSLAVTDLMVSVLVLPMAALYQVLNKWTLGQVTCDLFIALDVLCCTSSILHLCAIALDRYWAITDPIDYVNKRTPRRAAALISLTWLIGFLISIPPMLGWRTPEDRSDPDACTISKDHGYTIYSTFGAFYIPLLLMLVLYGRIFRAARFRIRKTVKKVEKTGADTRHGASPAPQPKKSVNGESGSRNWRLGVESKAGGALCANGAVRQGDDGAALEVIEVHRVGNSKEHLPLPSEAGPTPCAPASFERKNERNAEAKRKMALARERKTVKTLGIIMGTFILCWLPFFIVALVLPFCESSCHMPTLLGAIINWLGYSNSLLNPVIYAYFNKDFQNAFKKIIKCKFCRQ
Method: as §1

Histaminergic H2 = Histaminergic H2 (Homo sapiens, UniProt P25021); experiment: competitive radioligand binding, Histaminergic H2; conditions: compound concentration of 1 μM
Sequence of Histaminergic H2 (P25021 whole entry): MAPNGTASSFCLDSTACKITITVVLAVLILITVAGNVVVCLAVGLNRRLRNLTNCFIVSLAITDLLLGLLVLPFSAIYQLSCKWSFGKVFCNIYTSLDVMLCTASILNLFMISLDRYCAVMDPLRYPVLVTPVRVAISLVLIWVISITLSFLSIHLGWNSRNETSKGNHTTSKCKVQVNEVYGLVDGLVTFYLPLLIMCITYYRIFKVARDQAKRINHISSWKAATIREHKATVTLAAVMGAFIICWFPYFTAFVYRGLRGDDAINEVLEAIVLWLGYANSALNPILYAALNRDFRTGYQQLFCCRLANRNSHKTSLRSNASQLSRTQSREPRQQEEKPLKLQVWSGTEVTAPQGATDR
Method: as §1

Dopaminergic D1 = Dopaminergic D1 (Homo sapiens, UniProt P21728); experiment: competitive radioligand binding, Dopaminergic D1; conditions: compound concentration of 1 μM
Sequence of Dopaminergic D1 (P21728 whole entry): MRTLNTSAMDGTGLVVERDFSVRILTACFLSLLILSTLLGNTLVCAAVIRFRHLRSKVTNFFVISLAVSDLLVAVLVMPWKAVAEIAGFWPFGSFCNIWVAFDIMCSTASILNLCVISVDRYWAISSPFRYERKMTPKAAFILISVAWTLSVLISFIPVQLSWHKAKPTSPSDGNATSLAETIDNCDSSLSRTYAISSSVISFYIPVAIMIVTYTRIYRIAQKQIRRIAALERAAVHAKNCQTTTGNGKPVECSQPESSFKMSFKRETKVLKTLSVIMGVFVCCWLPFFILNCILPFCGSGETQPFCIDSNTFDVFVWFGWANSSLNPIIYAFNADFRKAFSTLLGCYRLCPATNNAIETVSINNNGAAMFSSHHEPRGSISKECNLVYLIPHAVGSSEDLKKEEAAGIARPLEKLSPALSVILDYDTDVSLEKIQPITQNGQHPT
Method: as §1

[1] = test system: Therapeutic targets (Adrenergic, Dopaminergic, Histaminergic, Serotoninergic); experiment: Profiles of pharmacological activity in competitive radioligand binding (whole panel); conditions: 1 μM, grades not defined
Method: as §1

Dopaminergic D2L = Dopaminergic D2L (Homo sapiens, UniProt P14416); experiment: competitive radioligand binding, Dopaminergic D2L; conditions: compound concentration of 1 μM
Sequence of Dopaminergic D2L (P14416 whole entry): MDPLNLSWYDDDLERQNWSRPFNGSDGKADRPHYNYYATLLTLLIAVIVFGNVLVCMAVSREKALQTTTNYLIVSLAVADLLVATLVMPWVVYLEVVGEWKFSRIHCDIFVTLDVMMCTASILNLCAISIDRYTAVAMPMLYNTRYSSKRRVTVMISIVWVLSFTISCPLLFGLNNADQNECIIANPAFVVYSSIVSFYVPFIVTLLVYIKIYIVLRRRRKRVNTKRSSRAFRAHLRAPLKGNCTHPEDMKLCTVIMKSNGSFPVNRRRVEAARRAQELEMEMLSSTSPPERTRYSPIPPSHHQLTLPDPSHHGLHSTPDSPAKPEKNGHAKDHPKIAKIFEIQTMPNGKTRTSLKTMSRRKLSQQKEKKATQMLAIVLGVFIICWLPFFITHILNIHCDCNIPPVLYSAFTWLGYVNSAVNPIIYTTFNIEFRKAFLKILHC
Method: as §1

Dopaminergic D3 = Dopaminergic D3 (Homo sapiens, UniProt P35462); experiment: competitive radioligand binding, Dopaminergic D3; conditions: compound concentration of 1 μM
Sequence of Dopaminergic D3 (P35462 whole entry): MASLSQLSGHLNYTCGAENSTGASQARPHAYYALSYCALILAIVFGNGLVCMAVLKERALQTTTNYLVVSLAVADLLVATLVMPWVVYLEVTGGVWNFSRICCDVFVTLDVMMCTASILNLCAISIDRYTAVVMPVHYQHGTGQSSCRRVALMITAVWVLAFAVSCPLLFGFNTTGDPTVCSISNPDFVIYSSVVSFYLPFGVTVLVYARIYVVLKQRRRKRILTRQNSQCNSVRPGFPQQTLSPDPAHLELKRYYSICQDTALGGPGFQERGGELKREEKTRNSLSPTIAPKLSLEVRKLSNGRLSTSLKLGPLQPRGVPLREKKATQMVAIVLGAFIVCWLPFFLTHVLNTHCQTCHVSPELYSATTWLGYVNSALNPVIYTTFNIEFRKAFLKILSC
Method: as §1

Dopaminergic D4.2 = biological target: T2, Dopaminergic D4.2 (Homo sapiens, UniProt P21917, DEL265-296); experiment: competitive radioligand binding, Dopaminergic D4.2; conditions: compound concentration of 1 μM
T2 sequence (P21917 with tags, fused parts or gaps DEL265-296): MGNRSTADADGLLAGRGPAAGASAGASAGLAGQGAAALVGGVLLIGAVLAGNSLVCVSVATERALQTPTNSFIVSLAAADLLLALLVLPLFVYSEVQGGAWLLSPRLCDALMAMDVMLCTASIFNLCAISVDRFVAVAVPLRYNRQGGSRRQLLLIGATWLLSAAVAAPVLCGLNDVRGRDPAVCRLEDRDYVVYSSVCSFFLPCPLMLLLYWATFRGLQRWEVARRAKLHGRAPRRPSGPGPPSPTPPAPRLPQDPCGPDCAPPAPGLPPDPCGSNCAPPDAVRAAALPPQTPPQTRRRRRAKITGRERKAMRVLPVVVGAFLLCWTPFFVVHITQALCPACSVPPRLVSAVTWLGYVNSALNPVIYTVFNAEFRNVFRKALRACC
Method: as §1

Serotoninergic 5-HT2A = Serotoninergic 5-HT2A (Homo sapiens, UniProt P28223); experiment: competitive radioligand binding, Serotoninergic 5-HT2A; conditions: compound concentration of 1 μM
Sequence of Serotoninergic 5-HT2A (P28223 whole entry): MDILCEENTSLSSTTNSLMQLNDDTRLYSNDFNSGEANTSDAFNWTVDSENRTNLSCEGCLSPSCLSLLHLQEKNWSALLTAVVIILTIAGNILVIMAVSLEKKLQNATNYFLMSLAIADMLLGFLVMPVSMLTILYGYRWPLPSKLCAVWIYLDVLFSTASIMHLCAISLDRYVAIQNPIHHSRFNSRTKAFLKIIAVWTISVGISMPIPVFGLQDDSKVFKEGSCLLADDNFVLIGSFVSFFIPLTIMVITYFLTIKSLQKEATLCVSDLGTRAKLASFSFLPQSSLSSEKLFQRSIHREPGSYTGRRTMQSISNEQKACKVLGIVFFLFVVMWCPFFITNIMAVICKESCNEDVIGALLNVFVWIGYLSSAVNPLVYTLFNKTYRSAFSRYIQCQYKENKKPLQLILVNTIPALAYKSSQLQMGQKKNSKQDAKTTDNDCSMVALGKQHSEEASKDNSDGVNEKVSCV
Method: as §1

Adrenergic α2A = biological target: T3, Adrenergic α2A (Homo sapiens, UniProt P08913); experiment: competitive radioligand binding, Adrenergic α2A; conditions: compound concentration of 1 μM
T3 sequence (P08913 1-465): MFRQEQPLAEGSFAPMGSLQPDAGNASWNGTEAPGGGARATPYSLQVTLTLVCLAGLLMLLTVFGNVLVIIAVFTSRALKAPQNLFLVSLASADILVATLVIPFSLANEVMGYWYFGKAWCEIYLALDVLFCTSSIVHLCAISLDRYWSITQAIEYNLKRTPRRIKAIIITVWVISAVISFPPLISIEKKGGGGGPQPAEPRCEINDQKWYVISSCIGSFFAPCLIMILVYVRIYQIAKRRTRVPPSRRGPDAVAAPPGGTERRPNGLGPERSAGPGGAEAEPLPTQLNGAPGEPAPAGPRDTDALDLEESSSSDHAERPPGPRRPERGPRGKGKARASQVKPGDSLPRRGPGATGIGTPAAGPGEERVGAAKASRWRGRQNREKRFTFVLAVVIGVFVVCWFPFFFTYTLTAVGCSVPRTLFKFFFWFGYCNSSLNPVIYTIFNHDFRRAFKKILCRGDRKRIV
Method: as §1

Serotoninergic 5-HT2C = biological target: T4, Serotoninergic 5-HT2C (Homo sapiens, UniProt P28335); experiment: competitive radioligand binding, Serotoninergic 5-HT2C; conditions: compound concentration of 1 μM
T4 sequence (P28335 33-458): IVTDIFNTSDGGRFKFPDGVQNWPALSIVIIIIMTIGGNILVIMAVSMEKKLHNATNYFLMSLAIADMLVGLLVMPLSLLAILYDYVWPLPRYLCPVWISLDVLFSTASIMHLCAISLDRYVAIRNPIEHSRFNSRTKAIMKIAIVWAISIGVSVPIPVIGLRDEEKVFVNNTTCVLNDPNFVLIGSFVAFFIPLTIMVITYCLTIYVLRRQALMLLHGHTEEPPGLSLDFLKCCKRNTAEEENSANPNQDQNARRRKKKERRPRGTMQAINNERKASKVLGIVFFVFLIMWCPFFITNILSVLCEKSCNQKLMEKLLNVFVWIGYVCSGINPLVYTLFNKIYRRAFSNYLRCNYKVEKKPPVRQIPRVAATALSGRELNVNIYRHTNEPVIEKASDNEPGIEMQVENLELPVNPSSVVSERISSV
Method: as §1

Adrenergic α1D = biological target: T5, Adrenergic α1D (Homo sapiens, UniProt P25100); experiment: competitive radioligand binding, Adrenergic α1D; conditions: compound concentration of 1 μM
T5 sequence (P25100 1-572): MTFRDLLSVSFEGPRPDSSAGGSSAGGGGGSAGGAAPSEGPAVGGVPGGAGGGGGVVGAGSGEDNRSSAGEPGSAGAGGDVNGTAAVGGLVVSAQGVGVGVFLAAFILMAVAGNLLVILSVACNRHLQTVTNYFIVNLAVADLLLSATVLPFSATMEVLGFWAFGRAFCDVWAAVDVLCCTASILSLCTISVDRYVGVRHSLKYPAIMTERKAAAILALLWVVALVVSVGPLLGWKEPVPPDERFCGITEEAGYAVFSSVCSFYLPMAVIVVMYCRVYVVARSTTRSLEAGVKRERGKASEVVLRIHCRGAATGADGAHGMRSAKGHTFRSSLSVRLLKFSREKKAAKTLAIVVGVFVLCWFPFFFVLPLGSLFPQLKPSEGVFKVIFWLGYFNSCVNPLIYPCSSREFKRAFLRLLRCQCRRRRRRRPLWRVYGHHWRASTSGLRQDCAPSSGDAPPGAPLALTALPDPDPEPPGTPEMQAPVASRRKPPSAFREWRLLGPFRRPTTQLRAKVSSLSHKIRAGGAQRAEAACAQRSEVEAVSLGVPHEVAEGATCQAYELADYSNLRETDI
Method: as §1

Histaminergic H3 = Histaminergic H3 (Homo sapiens, UniProt Q9Y5N1); experiment: competitive radioligand binding, Histaminergic H3; conditions: compound concentration of 1 μM; in % (unit assumed)
Sequence of Histaminergic H3 (Q9Y5N1 whole entry): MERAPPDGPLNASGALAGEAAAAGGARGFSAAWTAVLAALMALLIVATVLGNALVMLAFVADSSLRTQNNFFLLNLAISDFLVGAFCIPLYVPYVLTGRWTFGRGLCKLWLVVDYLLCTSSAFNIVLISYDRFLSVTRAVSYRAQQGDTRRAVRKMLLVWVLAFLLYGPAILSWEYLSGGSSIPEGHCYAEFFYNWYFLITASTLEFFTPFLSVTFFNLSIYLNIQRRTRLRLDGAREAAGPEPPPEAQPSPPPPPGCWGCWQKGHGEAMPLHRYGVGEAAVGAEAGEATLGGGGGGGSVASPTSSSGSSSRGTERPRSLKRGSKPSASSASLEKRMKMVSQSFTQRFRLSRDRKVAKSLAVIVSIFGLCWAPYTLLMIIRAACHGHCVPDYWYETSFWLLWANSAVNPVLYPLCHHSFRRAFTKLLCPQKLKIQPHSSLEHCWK
Method: as §1

Serotoninergic 5-HT7 = Serotoninergic 5-HT7 (Homo sapiens, UniProt P34969); experiment: competitive radioligand binding, Serotoninergic 5-HT7; conditions: compound concentration of 1 μM
Sequence of Serotoninergic 5-HT7 (P34969 whole entry): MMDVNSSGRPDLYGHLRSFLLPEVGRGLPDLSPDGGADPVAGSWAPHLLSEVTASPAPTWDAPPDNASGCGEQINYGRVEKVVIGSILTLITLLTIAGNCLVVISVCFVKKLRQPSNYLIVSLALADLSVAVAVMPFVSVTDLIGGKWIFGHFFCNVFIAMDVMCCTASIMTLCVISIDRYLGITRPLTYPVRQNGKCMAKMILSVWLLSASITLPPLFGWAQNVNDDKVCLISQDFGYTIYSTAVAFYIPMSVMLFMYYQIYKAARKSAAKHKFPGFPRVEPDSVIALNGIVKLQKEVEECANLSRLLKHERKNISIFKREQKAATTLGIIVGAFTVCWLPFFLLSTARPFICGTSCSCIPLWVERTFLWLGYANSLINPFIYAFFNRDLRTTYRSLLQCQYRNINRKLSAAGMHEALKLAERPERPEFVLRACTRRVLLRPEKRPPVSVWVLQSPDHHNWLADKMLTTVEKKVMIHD
Method: as §1

Serotoninergic 5-HT1B = experiment: competitive radioligand binding, Serotoninergic 5-HT1B; conditions: compound concentration of 1 μM
Method: as §1

Dopaminergic D2S = Dopaminergic D2S (Homo sapiens, UniProt P14416); experiment: competitive radioligand binding, Dopaminergic D2S; conditions: compound concentration of 1 μM
Sequence of Dopaminergic D2S (P14416 1-414 isoform P14416-2): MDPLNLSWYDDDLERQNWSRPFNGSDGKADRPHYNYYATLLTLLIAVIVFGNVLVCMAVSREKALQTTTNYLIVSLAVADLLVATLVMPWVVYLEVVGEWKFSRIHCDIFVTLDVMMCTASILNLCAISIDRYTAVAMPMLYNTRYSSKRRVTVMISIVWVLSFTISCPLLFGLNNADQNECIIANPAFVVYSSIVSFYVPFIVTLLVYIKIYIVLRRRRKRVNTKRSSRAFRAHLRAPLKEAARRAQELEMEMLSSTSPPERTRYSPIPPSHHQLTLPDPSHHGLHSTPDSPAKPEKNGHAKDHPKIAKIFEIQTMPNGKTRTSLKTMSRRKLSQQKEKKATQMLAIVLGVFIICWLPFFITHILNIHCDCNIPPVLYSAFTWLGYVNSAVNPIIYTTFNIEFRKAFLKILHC
Method: as §1

Serotoninergic 5-HT2B = Serotoninergic 5-HT2B (Homo sapiens, UniProt P41595); experiment: competitive radioligand binding, Serotoninergic 5-HT2B; conditions: compound concentration of 1 μM
Sequence of Serotoninergic 5-HT2B (P41595 whole entry): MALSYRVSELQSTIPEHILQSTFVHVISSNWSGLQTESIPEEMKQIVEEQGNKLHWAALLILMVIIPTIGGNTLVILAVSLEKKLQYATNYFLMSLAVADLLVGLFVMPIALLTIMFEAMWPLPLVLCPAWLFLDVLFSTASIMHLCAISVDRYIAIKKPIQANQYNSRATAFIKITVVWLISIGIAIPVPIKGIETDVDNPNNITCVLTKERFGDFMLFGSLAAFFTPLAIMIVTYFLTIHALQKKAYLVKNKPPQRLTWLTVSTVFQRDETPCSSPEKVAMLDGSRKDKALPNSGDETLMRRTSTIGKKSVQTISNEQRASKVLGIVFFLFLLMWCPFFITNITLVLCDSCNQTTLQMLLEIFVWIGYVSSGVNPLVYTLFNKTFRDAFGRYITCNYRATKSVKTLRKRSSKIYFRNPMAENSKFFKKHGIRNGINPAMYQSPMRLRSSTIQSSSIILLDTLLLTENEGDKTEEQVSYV
Method: as §1

Histaminergic H1 = Histaminergic H1 (Homo sapiens, UniProt P35367); experiment: competitive radioligand binding, Histaminergic H1; conditions: compound concentration of 1 μM
Sequence of Histaminergic H1 (P35367 whole entry): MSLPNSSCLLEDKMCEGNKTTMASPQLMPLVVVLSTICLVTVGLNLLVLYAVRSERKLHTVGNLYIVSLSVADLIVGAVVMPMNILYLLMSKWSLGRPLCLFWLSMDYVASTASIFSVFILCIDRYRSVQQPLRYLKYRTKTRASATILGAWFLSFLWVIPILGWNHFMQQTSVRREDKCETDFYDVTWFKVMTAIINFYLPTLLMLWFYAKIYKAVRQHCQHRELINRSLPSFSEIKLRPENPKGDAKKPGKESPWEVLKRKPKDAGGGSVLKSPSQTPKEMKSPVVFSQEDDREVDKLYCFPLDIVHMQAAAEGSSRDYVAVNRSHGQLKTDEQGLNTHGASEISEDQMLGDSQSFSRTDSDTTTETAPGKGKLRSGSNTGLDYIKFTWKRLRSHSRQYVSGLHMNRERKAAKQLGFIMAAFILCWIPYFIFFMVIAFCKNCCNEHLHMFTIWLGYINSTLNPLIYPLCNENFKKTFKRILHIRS
Method: as §1

Adrenergic α1A = experiment: competitive radioligand binding, Adrenergic α1A; conditions: compound concentration of 1 μM
Method: as §1

SMILES | radio-labelled ligand displacement, Adrenergic α1B (Adrenergic α1B) [%] | radio-labelled ligand displacement, Serotoninergic 5-HT6 (Serotoninergic 5-HT6) [%] | radio-labelled ligand displacement, Serotoninergic 5-HT1A (Serotoninergic 5-HT1A) [%] | radio-labelled ligand displacement, Histaminergic H2 (Histaminergic H2) [%] | radio-labelled ligand displacement, Dopaminergic D1 (Dopaminergic D1) [%] | grade of the activity profile (poor / satisfactory / good) [1] | radio-labelled ligand displacement, Dopaminergic D2L (Dopaminergic D2L) [%] | radio-labelled ligand displacement, Dopaminergic D3 (Dopaminergic D3) [%] | radio-labelled ligand displacement, Dopaminergic D4.2 (Dopaminergic D4.2) [%] | radio-labelled ligand displacement, Serotoninergic 5-HT2A (Serotoninergic 5-HT2A) [%] | radio-labelled ligand displacement, Adrenergic α2A (Adrenergic α2A) [%] | radio-labelled ligand displacement, Serotoninergic 5-HT2C (Serotoninergic 5-HT2C) [%] | radio-labelled ligand displacement, Adrenergic α1D (Adrenergic α1D) [%] | radio-labelled ligand displacement, Histaminergic H3 (Histaminergic H3) | radio-labelled ligand displacement, Serotoninergic 5-HT7 (Serotoninergic 5-HT7) [%] | radio-labelled ligand displacement, Serotoninergic 5-HT1B (Serotoninergic 5-HT1B) [%] | radio-labelled ligand displacement, Dopaminergic D2S (Dopaminergic D2S) [%] | radio-labelled ligand displacement, Serotoninergic 5-HT2B (Serotoninergic 5-HT2B) [%] | radio-labelled ligand displacement, Histaminergic H1 (Histaminergic H1) [%] | radio-labelled ligand displacement, Adrenergic α1A (Adrenergic α1A) [%] | further results
O=C(CCCN1CCC(O)(c2ccc(Cl)cc2)CC1)c1ccc(F)cc1 [Haloperidol, reference compound] | – | – | – | – | – | – | – | – | – | – | – | – | – | – | – | – | – | – | – | – | Antipsychotic activity: disturbance of prepulse inhibition of startle caused by Apomorphine (Mice of SHK line): prevented disturbance of prepulse inhibition of startle caused by Apomorphine
Cc1ccc(C=CCn2c3c(c4cc(C)sc42)CN(C)CC3)cc1 [3.11(2)•HCl, 2,5-dimethyl-8-[3-(p-tolyl)allyl]-4,5,6,7-tetrahydro-5H-thieno[3′,2′:4,5]pyrrolo[3,2-c]pyridine] | 60 | 95 | 21 | 50 | 10 | satisfactory | 50 | 49 | 13 | 93 | 53 | 93 | 42 | 7 | 85 | 39 | 61 | 89 | 81 | 55 | –
Cc1ccc(CCCn2c3c(c4c(Cl)csc42)CN(C)CC3)cc1 [3.12(5)•HCl, 5-methyl-8-[(p-tolyl)propyl]-3-chloro-4,5,6,7-tetrahydro-5H-thieno[3′,2′:4,5]pyrrolo[3,2-c]pyridine] | 89 | 99 | 18 | 57 | 47 | good | 35 | 23 | 33 | 97 | 91 | 94 | 86 | −3 | 96 | 30 | 29 | 63 | 89 | 79 | –
